Key:
AnGar1 [1] = target: T1, AnGar1 (Aspergillus niger, UniProt A2R7U3); assay: NADH oxidation at […] nm, yeast crude extract; type: biochemical; settings: 160 or 800 uM NADH, 100 mM GalA, 10 mM potassium phosphate pH 7.2; competitive
T1 construct: gene An16g04770; synthetic ORF codon optimized for S. cerevisiae; expressed from plasmid in yeast CEN.PK2-1C, clear crude extract assayed against empty-vector control
T1 sequence (A2R7U3 1-319): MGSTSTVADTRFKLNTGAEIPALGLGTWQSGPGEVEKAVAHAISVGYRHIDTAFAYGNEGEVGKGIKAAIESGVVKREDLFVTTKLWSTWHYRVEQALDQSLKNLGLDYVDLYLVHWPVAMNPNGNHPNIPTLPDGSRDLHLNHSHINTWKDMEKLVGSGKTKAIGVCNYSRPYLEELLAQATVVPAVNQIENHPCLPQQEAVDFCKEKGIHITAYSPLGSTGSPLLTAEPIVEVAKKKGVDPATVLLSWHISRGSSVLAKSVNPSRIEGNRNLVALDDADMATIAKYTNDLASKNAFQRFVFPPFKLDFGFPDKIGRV

TrGar1 = target: T2, TrGar1 (Trichoderma reesei, UniProt Q3ZFI7); assay: HPLC of L-galactonate in cultures of expressing yeast; type: cell-based; settings: whole cells, sorbitol co-substrate, YlSdr supplying NADPH, pH 6.3, 30 °C
T2 construct: gene gar1; synthetic ORF codon optimized for S. cerevisiae; expressed in yeast strains co-expressing GatA, Hxt13 and sorbitol dehydrogenase; whole-cell conversion
T2 sequence (Q3ZFI7 1-309): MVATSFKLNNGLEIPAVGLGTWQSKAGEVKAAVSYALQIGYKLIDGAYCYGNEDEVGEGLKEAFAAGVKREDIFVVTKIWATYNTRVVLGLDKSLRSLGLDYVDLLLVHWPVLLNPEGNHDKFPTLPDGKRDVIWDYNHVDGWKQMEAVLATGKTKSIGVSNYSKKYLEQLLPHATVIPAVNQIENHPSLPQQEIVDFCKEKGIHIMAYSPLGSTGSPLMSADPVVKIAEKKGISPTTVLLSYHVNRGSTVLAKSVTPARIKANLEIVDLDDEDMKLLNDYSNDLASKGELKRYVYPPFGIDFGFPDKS

AnGaaA = target: T3, AnGaaA (Aspergillus niger, UniProt A8DRH9); assay: as above; type: cell-based; settings: whole cells, sorbitol co-substrate, YlSdr supplying NADPH, pH 6.3, 30 °C
T3 construct: gene gaaA; synthetic ORF codon optimized for S. cerevisiae; expressed from multicopy plasmid in yeast; whole-cell conversion
T3 sequence (A8DRH9 1-412): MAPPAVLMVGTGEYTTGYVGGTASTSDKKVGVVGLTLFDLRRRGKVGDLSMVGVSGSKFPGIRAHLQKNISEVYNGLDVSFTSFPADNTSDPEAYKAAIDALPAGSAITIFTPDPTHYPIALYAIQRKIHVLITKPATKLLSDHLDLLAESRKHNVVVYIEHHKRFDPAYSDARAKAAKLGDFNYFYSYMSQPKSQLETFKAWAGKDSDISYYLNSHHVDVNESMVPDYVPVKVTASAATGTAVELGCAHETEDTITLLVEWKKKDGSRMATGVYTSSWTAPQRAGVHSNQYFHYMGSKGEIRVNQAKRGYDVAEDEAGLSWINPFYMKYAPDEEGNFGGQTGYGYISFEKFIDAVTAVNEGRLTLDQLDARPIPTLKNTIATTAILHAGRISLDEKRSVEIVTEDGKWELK

AnGar1 [2] = target: T1, AnGar1; assay: NAD(P)H oxidation at […] nm, yeast crude extract; HPLC of L-galactonate in cultures; type: biochemical; settings: 100 mM GalA, NADPH, 10 mM potassium phosphate pH 7.2
AnGar1 [3] = target: T1, AnGar1; assay: NADPH oxidation at […] nm, yeast crude extract; type: biochemical; settings: 100 mM GalA, 160 or 800 uM NADPH, 10 mM potassium phosphate pH 7.2

NC(=O)c1ccc[n+]([C@@H]2O[C@H](COP(=O)(O)OP(=O)(O)OC[C@H]3O[C@@H](n4cnc5c(N)ncnc54)[C@H](OP(=O)(O)O)[C@@H]3O)[C@@H](O)[C@H]2O)c1 [NADP]
relative activity (% of activity without NADP) (AnGar1 [1]): when NADP was added to competitively inhibit NADH binding, only the mutants were able

O=C(O)[C@H]1OC(O)[C@H](O)[C@@H](O)[C@H]1O (stereo partly drawn) [D-galacturonic acid]
HPLC of L-galactonate in cultures of expressing yeast (TrGar1): Wildtype TrGar1 and AnGar1 produce comparable amount of GalOA
HPLC of L-galactonate in cultures of expressing yeast (AnGaaA): The lower titers observed with AnGaaA in comparison to TrGar1
NAD(P)H oxidation at 340 nm, yeast crude extract; HPLC of L-galactonate in cultu (AnGar1 [2]): we demonstrate, for the first time, the activity of AnGar1 as a GalA reductase

NC(=O)C1=CN([C@@H]2O[C@H](COP(=O)(O)OP(=O)(O)OC[C@H]3O[C@@H](n4cnc5c(N)ncnc54)[C@H](OP(=O)(O)O)[C@@H]3O)[C@@H](O)[C@H]2O)C=CC1 [NADPH]
NADPH oxidation at 340 nm, yeast crude extract (AnGar1 [3]): lower compared to those with NADPH of the wildtype enzyme

From publication PMC7642425, “Engineering cofactor supply and NADH-dependent D-galacturonic acid reductases for redox-balanced production of L-galactonate in Saccharomyces cerevisiae” (Scientific Reports, 2020)
